Reference: ChEMBL document CHEMBL2390930, “Design, synthesis and evaluation of 1,2-benzisothiazol-3-one derivatives as potent caspase-3 inhibitors” (Bioorg Med Chem, 2013)
pIC50: −log10 of the molar value.

target: T1, Caspase-3 (Homo sapiens, UniProt P42574); test: Inhibition of recombinant human caspase-3 using Ac-LDEVD-AMC as substrate assessed as accumulation of 7-AMC incubated for 10 mins followed by substrate addition measured for 10 mins by fluorimetric analysis
T1 sequence (P42574 whole entry): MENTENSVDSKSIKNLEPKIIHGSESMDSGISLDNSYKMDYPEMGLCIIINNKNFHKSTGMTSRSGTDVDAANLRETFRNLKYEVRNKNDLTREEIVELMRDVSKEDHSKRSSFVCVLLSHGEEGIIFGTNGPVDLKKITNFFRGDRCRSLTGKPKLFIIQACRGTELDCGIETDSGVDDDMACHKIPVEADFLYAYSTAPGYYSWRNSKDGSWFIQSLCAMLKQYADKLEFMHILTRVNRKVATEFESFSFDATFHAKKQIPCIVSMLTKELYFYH

SMILES	pIC50
Cc1ccc(-n2sc3ccccc3c2=O)cc1	6.33
Cn1sc2ccccc2c1=O	4.37
O=C(NCc1ccccc1)n1sc2ccccc2c1=O	7.07
O=C(Nc1ccc(I)cc1)n1sc2ccccc2c1=O	< 4.00
O=c1c2ccccc2sn1-c1ccccc1	6.27
